Structures can show the parent of a compound that is named as a salt.
Test system: jejunum
Assay: Transcriptional profiling on Affymetrix GeneChips, single dose, naïve mice: jejunum
Format: in vivo, C57BL/6 mice
Settings: 100MMF-vs-Veh
Method: Treated mice were sacrificed at 2, 7, or 12 hours. Tissues (liver, spleen, kidney, jejunum, cortex, hippocampus, striatum and whole blood) were collected and analyzed by transcriptional profiling on mouse Affymetrix GeneChips.
Tissues (liver, spleen, kidney, jejunum, cortex, hippocampus, striatum and whole blood) were collected and analyzed by transcriptional profiling on mouse Affymetrix GeneChips.
Animals were exposed to CO2 and whole blood collected via cardiac puncture. Two 100 μl aliquots of whole blood were collected in 1.5 mL microcentrifuge tubes and snap frozen in liquid nitrogen. Peripheral (liver, spleen, kidney and jejunum) and CNS brain (cerebellum, hippocampus, striatum and cortex) tissues were harvested and snap frozen in liquid nitrogen, with special care taken to collect tissues of similar size and from the same location. All samples were stored at −80° C. until RNA extraction was conducted.
For RNA preparation, frozen tissues were placed in 2 mL RNAse-free 96-well blocks with 1.5 mL QIAzol Lysis Reagent (QIAgen) and a 3.2 mm stainless steel bead (BioSpec Products, Bartlesville, Okla.). Tissues were disrupted for four cycles of 45 seconds in a Mini-Beadbeater (Biospec Products). RNA was extracted in chloroform and the aqueous phase was mixed with an equal volume of 70% ethanol. Extracted RNA was applied to RNeasy 96 plates and purified by the spin method according to the manufacturer's protocol (RNeasy 96 Universal Tissue Protocol, QIAgen, Hilden Germany).
Automated sample amplifications and biotin labelings were carried out using the NuGEN Ovation RNA Amplification system V2 (Cat #3100), Ovation WB reagent (Cat #1300) and Encore Biotin module (Cat #4200) (NuGEN Technologies, Inc, San Carlos, Calif.) according to manufacturer's recommendations using an Arrayplex automated liquid handler (Beckman Coulter, Indianapolis, Ind.). Two micrograms of biotin labeled sscDNA probe were hybridized to Affymetrix GeneChip Affymetrix HT_MG-430_PM plate arrays with modified conditions as described in Allaire et al. Washing and staining of the hybridized arrays were completed as described in the GeneChip Expression analysis technical manual for HT plate arrays using the Genechip® Array Station (Affymetrix, Santa Clara, Calif.) with modifications as described in Allaire et al. The processed GeneChip® plate arrays were scanned using GeneTitan scanner (Affymetrix, Santa Clara, Calif.).
Affymetrix scans were subject to quality control (QC) measures. These tests included a visual inspection of the distribution of raw signal intensities and an assessment of RNA degradation, relative log expression (RLE), and normalized unsealed standard error (NUSE). All sample scans that passed these QC metrics were included in the analysis.
All CEL files were subjected to GC-content-based Robust Multi-array Average (GCRMA) normalization (version 2.20.0) (Irizarry R A, et al. Nucleic Acids Res 2003; 31:e15; Li C, et al. Genome Biol 2001; 2:[…]0032). Expression levels were log (base 2) transformed.
All calculations and analyses were carried out using R (version 2.11.1) and Bioconductor computational tools (Gentleman R. Springer Science+Business Media 2005).

With `COC(=O)/C=C/C(=O)O` [MMF, monomethyl fumarate] the “FC Slc2a1 (1426599_PM_a_at)” value (2 h) was 1.53, the “FC Slc2a1 (1426600_PM_at)” value (2 h) was 1.68 and the “FC Slc40a1 (1417061_PM_at)” value (2 h) was 2.73. The “FC Slc48a1 1450410_PM_a_at” value (2 h) was 1.62, the “FC Slfn2 (1450165_PM_at)” value (2 h) was −1.82 and the “FC Srxn1 (1425351_PM_at)” value (2 h) was 1.77. The “FC St3gal6 (1449078_PM_at)” value (2 h) was 1.52, the “FC Tkt (1436605_PM_at)” value (2 h) was 1.73 and the “FC Tnfaip3 1433699_PM_at” value (2 h) was −1.67. For the same molecule, the “FC Tox3 (1436600_PM_at)” value (2 h) was 1.81, the “FC Ugt2b5 (1419622_PM_at)” value (2 h) was 3.13 and the “FC Ugt2b35 (1439624_PM_at)” value (2 h) was 3.08. For the same molecule, the “FC 1110020G09Rik (1437287_PM_at)” value (7 h) was 1.74, the “FC 1447411_PM_at” value (7 h) was 1.97 and the “FC 9130221J17Rik (1443159_PM_at)” value (7 h) was 1.61. For the same molecule, the “FC 9430069I07Rik (1431672_PM_at)” value (7 h) was 3.66, the “FC Abcc2 (1450109_PM_s_at)” value (7 h) was 1.51 and the “FC Abcc3 (1428988_PM_at)” value (7 h) was 2.26. For the same molecule, the “FC Acsm5 (1437662_PM_at)” value (7 h) was 1.71, the “FC Acss2 (1446542_PM_at)” value (7 h) was 2.06 and the “FC Akr1b8 (1448894_PM_at)” value (7 h) was 14.16. For the same molecule, the “FC Akr1c12 (1450455_PM_s_at)” value (7 h) was 1.58, the “FC Akr1c13 (1418672_PM_at)” value (7 h) was 1.86 and the “FC Akr1c19 (1455454_PM_at)” value (7 h) was 2.39. For the same molecule, the “FC Aldh1a7 (1418601_PM_at)” value (7 h) was 1.86, the “FC Areg (1421134_PM_at)” value (7 h) was 2.93 and the “FC Asns 1451095_PM_at” value (7 h) was 1.60. For the same molecule, the “FC Blvrb (1451386_PM_at)” value (7 h) was 1.55, the “FC Capn13 (1437960_PM_at)” value (7 h) was −1.75 and the “FC Cbr1 (1460196_PM_at)” value (7 h) was 1.83. The “FC Cbr3 (1427912_PM_at)” value (7 h) was 40.98, the “FC Ces1e (1419510_PM_at)” value (7 h) was 2.44 and the “FC Ces1f (1424266_PM_s_at)” value (7 h) was 5.19. For the same molecule, the “FC Ces1g (1449486_PM_at)” value (7 h) was 9.24, the “FC Ddc (1426215_PM_at)” value (7 h) was 2.03 and the “FC Dppa5a (1416552_PM_at)” value (7 h) was 1.88. For the same molecule, the “FC Enkur (1428960_PM_at)” value (7 h) was −1.56, the “FC Entpd5 (1451765_PM_a_at)” value (7 h) was 1.60 and the “FC Esd (1438488_PM_at)” value (7 h) was 2.15. For the same molecule, the “FC Fam162a (1451385_PM_at)” value (7 h) was 1.67, the “FC G6pd2 (1422327_PM_s_at)” value (7 h) was 2.06 and the “FC G6pdx (1448354_PM_at)” value (7 h) was 1.76. The “FC Gclc (1424296_PM_at)” value (7 h) was 2.87, the “FC Gclc (1455959_PM_s_at)” value (7 h) was 2.48 and the “FC Gm14446 (1435529_PM_at)” value (7 h) was −1.65. The “FC Gpx2 (1449279_PM_at)” value (7 h) was 1.53, the “FC Gsr (1421816_PM_at)” value (7 h) was 3.13 and the “FC Gss (1441931_PM_x_at)” value (7 h) was 2.20. The “FC Gss (1448273_PM_at)” value (7 h) was 2.25, the “FC Gsta2 (1421040_PM_a_at)” value (7 h) was 9.84 and the “FC Gsta2 (1421041_PM_s_at)” value (7 h) was 1.90. For the same molecule, the “FC Gsta3 (1423436_PM_at)” value (7 h) was 5.71, the “FC Gsta3 (1423437_PM_at)” value (7 h) was 5.75 and the “FC Gstm1 (1416416_PM_x_at)” value (7 h) was 3.95. The “FC Gstm1 (1425627_PM_x_at)” value (7 h) was 4.80, the “FC Gstm1 (1448330_PM_at)” value (7 h) was 4.23 and the “FC Gstm2 (1416411_PM_at)” value (7 h) was 2.09. For the same molecule, the “FC Gstm3 (1427473_PM_at)” value (7 h) was 3.46, the “FC Gstm3 (1427474_PM_s_at)” value (7 h) was 1.99 and the “FC Gstm4 (1424835_PM_at)” value (7 h) was 5.75. The “FC Gstm6 (1422072_PM_a_at)” value (7 h) was 2.23, the “FC Gstm7 (1419072_PM_at)” value (7 h) was 1.97 and the “FC Htatip2 (1451814_PM_a_at)” value (7 h) was 1.68. For the same molecule, the “FC Ifit1 (1450783_PM_at)” value (7 h) was −1.95, the “FC Matn2 (1419442_PM_at)” value (7 h) was 1.59 and the “FC Matn2 (1455978_PM_a_at)” value (7 h) was 2.21. The “FC Me1 (1416632_PM_at)” value (7 h) was 2.01, the “FC Nqo1 (1423627_PM_at)” value (7 h) was 2.63 and the “FC Pgd 1423706_PM_a_at” value (7 h) was 1.55. The “FC Pgm2 (1451149_PM_at)” value (7 h) was 1.54, the “FC Pir (1429001_PM_at)” value (7 h) was 5.12 and the “FC Prss8 (1418320_PM_at)” value (7 h) was 1.75. The “FC Rsad2 (1421009_PM_at)” value (7 h) was −1.84, the “FC Rsad2 (1436058_PM_at)” value (7 h) was −1.81 and the “FC Rtp4 (1418580_PM_at)” value (7 h) was −1.61. For the same molecule, the “FC Setd4 (1425239_PM_at)” value (7 h) was 2.27, the “FC Setd4 (1435405_PM_at)” value (7 h) was 1.76 and the “FC Setd4 (1460373_PM_a_at)” value (7 h) was 1.77. The “FC Slc5a4b (1422757_PM_at)” value (7 h) was 1.79, the “FC Slc35e3 (1428805_PM_at)” value (7 h) was 1.67 and the “FC Txnrd1 (1424486_PM_a_at)” value (7 h) was 2.07. The “FC Txnrd1 (1424487_PM_x_at)” value (7 h) was 1.93, the “FC Ugt2b5 (1419622_PM_at)” value (7 h) was 4.50 and the “FC Ugt2b35 (1439624_PM_at)” value (7 h) was 3.31. For the same molecule, the “FC Ugt2b36 (1455595_PM_at)” value (7 h) was 2.50 and the “FC Acss2 (1446542_PM_at)” value (12 h) was 1.52.

— patent US20160115540A1, “PRODRUGS AND DRUGS” (Biogen MA Inc., priority 2013, published 2016)
